One experiment concerns LINE-1 retrotransposon. As to the kind of experiment: LINE-1 DNA methylation assay in A549 cells. The note with it: A 0.5 μg/ml, Z 350 μM. The class given is cell-based, human. The protocol:
(§1) For the A549 human cancer cell line cells were grown in medium without treatment or supplemented with either Z (350 μM) or A (0.5 μg/ml), DNA was extracted by using the QiaAmp DNA mini Kit (Qiagen, France). Next, global DNA methylation was estimated by quantifying the presence of 5-methylcytosine 5-mC DNA ELISA Kit (Zymo Research) according to the manufacturers's instructions. DNA methylation at the LINE-1 transposons were assessed with the Global DNA Methylation Assay—LINE-1 kit (Active Motif).

The next experiment deals with ONSEN retrotransposon. The experiment is described as follows: ONSEN extrachromosomal DNA accumulation by qPCR in seedlings after heat stress. Format: in vivo, Arabidopsis thaliana. The note with it: HS. The procedure: After stratification for two days at 4° C., Arabidopsis thaliana plants (accession Col-0) were grown on sterile ½ MS medium with 1% sucrose and a pH of 5.8 (control medium) under long day conditions (16 h light) at 24° C. (day) and 22° C. (night), respectively. Oryza sativa plants were grown on sterile ½ MS medium with 1% sucrose and a pH of 5.8 (control medium) 16 h at 28° C. (day) and 27° C. (night), respectively.
The induction of epigenetic changes and the activation and stable integration of transposable elements in Arabidopsis seedlings was enhanced by germinating and growing them on ½ MS-medium that contained zebularine (final concentration: 10-40 μM), α-amanitin (final concentration: 0.005-20 μg/ml) or a combination of both chemicals (inductive media).
In order to trigger the transposition of the heat-responsive retrotransposon ONSEN, seven days old seedlings were exposed to a cold shock for 24 h at 6° C. followed by a heat-stress for 24 h at 37° C. (heat stress, HS) under controlled conditions in a growth chamber (Sanyo). Control plants were transferred back to longday-conditions 24° C. (day) and 22° C. (night) after the cold treatment at 6° C. for 24 h (CS, control stress, according to Ito et al., 2011).
Total DNA from seedlings and adult plants was isolated using a DNeasy Plant Mini Kit (QIAGEN).
In preparation to the measurement of extrachromosomal DNA copies of ONSEN in CS/HS and untreated/treated seedlings, roots were dissected directly after the heat stress and plants were immediately frozen in liquid nitrogen until DNA extraction.
The copy numbers of ONSEN were determined with qPCRs on total DNA using a TaqMan master mix (Life Technologies) in a final volume of 10 μl in the Light-Cycler 480 (Roche). ACTOPIA17 copy number was measured by quantitative PCR (qPCR) in a Light-Cycler 480 (Roche), using […] Master Mix. Actin2 (At3g18780) served as a standard gene for normalization.
In general terms: Real-time PCR tracks product formation cycle by cycle.

A further experiment deals with ONSEN LTR. The experiment is described as follows: DNA methylation analysis (DdeI chop PCR, bisulfite sequencing) at the ONSEN LTR. The class given is in vivo, Arabidopsis thaliana. The procedure:
20 ng of total genomic DNA isolated from Arabidopsis seedlings was digested with the methylation sensitive restriction enzyme, Dde1 (NEB) at 37° C. over night. Following heat inactivation at 60° C. for 20 min, the digested DNA was used as a template for the chopPCR. Actin2 served as a control for the digest. Undigested DNA was used as a loading control. PCR products were separated on a 1% agarose gel and stained with Midori Green.

Experiment [1] has as its system A549 human cancer cell line. The experiment is described as follows: Global DNA methylation (5-mC DNA ELISA) in A549 cells. The class given is cell-based. The note with it: A 0.5 μg/ml, Z 350 μM. The procedure: as §1

Entries after “also recorded” stand apart in the source; their conditions may differ.

With `CC[C@H](C)[C@@H]1NC(=O)CNC(=O)[C@@H]2Cc3c([nH]c4cc(O)ccc34)[S+]([O-])C[C@@H](NC(=O)CNC1=O)C(=O)N[C@@H](CC(N)=O)C(=O)N1C[C@H](O)C[C@H]1C(=O)N[C@@H]([C@@H](C)[C@@H](O)CO)C(=O)N2` (stereo partly drawn) [A, alpha-amanitin], the “reduction of DNA methylation at LINE-1” value in the experiment with LINE-1 retrotransposon is 40%. In addition, the “ONSEN copy number at different α-amanitin concentrations” value in the experiment with ONSEN retrotransposon (Col wildtype seedlings, α-amanitin in different concentrations in μg/ml) is “dose dependent accumulation”. Further, the “ONSEN ecDNA accumulation in dcl2/3/4 triple mutant” value in the experiment on ONSEN retrotransposon (dcl2/3/4 triple-mutant grown on A) is listed as “no effect”. Also, in the experiment with ONSEN retrotransposon (rdr6 plants grown on A), the “ONSEN ecDNA accumulation in rdr6 mutant” value is listed as “still enhancing ecDNA accumulation”. Besides, the “ONSEN ecDNA accumulation after heat stress” value in the experiment with ONSEN retrotransposon (wild-type seedlings, A 5 μg/ml, Z 40 μM) is recorded as “increase in ONSEN ecDNA”. For the same compound, the “DNA methylation at the ONSEN LTR at higher A concentration” value in the experiment on ONSEN LTR (WT (Col) seedlings, A 20 μg/ml, Z 10 μM) is “reduction in DNA-methylation; also recorded: strongly reduced DNA methylation”. In addition, the “CHH methylation at the ONSEN LTR” value with ONSEN LTR (after CS, A 5 μg/ml, Z 40 μM) is reported as “reduced CHH methylation levels”. The “reduction of global DNA methylation” value in experiment [1] stood at 40%.

As to `O=c1ncccn1[C@@H]1O[C@H](CO)[C@@H](O)[C@H]1O` [Z, zebularine], in the experiment on LINE-1 retrotransposon, the “reduction of DNA methylation at LINE-1” value came to 20%.

The record behind these values is patent US12144299B2, “Mobilisation of transposable elements to enhance genetic and epigenetic variability in a population” (priority 2015, dated 2024).
